Assays:
OCT2 = biological target: T1, OCT2 (Homo sapiens, UniProt O15244); assay: Transporter substrate evaluation, HEK293 cells; format: in vitro ADME; details: 1 and 10 μM
T1 construct: expressed in transfected cells; host or cells: HEK293
T1 sequence (O15244 1-555): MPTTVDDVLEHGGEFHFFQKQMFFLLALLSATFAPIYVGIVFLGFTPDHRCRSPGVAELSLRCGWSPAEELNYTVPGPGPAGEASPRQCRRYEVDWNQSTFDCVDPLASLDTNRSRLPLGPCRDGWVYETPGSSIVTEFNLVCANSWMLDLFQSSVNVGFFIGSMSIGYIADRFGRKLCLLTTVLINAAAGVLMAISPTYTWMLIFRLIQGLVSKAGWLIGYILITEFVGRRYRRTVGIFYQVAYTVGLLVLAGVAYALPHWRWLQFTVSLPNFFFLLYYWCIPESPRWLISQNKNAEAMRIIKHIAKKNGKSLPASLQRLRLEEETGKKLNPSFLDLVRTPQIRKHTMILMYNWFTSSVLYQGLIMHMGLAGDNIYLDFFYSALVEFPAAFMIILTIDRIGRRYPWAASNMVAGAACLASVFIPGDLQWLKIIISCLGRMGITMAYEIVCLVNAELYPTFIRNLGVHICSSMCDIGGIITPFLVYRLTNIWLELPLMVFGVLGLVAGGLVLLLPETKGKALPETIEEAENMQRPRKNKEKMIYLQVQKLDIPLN

OATP1B3 [1] = biological target: T2, OATP1B3 (Homo sapiens, UniProt Q9NPD5); assay: Transporter inhibition, HEK293 cells; format: in vitro ADME
T2 construct: expressed in transfected cells; host or cells: HEK293
T2 sequence (Q9NPD5 1-702): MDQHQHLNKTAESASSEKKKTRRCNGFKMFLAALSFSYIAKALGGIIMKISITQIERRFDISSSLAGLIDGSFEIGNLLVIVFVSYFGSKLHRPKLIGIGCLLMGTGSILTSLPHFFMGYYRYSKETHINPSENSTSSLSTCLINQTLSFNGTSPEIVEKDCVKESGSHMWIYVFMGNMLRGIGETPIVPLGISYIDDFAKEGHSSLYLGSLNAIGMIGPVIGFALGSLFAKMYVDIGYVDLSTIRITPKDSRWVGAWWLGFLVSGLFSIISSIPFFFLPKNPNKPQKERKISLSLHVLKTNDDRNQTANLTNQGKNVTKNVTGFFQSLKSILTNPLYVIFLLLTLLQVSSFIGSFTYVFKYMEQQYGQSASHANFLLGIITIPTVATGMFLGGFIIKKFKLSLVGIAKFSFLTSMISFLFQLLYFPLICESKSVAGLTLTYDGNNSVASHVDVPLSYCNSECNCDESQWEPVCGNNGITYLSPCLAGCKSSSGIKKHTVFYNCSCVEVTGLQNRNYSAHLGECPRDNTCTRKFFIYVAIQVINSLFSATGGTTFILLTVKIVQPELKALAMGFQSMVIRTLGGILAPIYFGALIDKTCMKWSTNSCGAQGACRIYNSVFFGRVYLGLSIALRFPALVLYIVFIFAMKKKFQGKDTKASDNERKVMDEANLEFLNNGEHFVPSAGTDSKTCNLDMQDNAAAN

[2] = test system: peripheral blood lymphocyte (PBL) counts; assay: Phase 1 single dosing study: peripheral blood lymphocyte counts; format: in vivo, human
Description: Compound 1 was administered as the L-arginine salt.
There were no other clinically significant safety issues with respect to vital signs, ECGs, pulmonary function tests, ophthalmoscopy, or clinical laboratory tests with the exception of expected pharmacological effects on peripheral blood lymphocyte counts. Dosing at the 3 and 5 mg induced a dose responsive decline in the absolute number of peripheral blood B cells, T cells, NK cells, and all T cell subsets except TEM cells. Total peripheral blood lymphocyte (PBL) counts were reduced by 2-4 hours after dosing, reaching a nadir by hour 8 which persisted for 24 hours with recovery to baseline over the next 4 days. PBL counts were reduced by ˜40% and ˜55% at the 3 mg and 5 mg dose levels. […] These findings are therefore consistent with the anticipated pharmacodynamic effects of S1P receptor agonists in preclinical studies and in humans (Gergely et al., Br Pharmacol 167(5):1035-1047, 2012; Brossard et al., Br J Clin Pharmacol 2013 April 18. doi:10.1111/bcp.12129. [Epub ahead of print] PubMed PMID: 23594176, and Kovarik et al., J Clin Pharmacol 44(5):532-537, 2004.)

BSEP = biological target: T3, BSEP (Homo sapiens, UniProt O95342); assay: Transporter inhibition, vesicular transport assay; format: in vitro ADME
T3 construct: host or cells: membrane vesicles
T3 sequence (O95342 whole entry): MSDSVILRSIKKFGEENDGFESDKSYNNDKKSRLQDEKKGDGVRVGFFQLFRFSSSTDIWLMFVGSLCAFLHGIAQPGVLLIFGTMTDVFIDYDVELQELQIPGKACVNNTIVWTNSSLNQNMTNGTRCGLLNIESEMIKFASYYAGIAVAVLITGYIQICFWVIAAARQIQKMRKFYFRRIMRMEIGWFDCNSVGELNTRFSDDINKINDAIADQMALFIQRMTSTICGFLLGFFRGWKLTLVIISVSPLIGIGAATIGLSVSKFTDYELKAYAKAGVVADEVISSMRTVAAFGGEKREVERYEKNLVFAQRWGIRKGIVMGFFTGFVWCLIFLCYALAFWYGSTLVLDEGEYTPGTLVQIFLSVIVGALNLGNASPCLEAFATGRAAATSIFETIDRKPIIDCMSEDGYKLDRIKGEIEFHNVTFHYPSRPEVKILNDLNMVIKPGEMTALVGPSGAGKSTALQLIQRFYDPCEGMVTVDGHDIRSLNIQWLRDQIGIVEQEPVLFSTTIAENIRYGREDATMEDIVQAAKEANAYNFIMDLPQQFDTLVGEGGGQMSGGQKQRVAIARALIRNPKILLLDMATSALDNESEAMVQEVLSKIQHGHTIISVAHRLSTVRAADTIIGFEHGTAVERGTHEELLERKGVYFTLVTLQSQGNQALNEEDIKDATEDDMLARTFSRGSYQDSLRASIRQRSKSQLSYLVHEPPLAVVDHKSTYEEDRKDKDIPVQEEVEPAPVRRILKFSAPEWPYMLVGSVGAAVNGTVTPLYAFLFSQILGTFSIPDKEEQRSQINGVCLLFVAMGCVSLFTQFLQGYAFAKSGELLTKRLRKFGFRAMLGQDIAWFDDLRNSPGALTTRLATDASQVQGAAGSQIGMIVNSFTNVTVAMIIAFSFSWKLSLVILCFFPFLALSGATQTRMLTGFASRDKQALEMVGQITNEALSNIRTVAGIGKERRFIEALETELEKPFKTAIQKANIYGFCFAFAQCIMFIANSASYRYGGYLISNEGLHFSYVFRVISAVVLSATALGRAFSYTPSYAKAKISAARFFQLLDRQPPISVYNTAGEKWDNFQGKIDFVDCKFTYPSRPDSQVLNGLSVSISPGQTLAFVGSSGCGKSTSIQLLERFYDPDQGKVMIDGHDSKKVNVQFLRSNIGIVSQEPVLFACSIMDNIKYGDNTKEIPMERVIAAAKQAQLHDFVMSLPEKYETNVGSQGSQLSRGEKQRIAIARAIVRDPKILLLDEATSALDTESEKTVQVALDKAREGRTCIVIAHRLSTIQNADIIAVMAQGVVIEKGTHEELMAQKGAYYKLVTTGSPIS

CYP enzymes = assay: Metabolism-dependent inhibition of CYP enzymes in human liver microsomes; format: in vitro ADME; details: 30 min preincubation with NADPH-regenerating system
Description: Known metabolism-dependent and/or direct inhibitors of CYP and UGT enzymes were included as positive controls, as applicable.

OATP1B3 [3] = biological target: T2, OATP1B3; assay: Transporter substrate evaluation, HEK293 cells; format: in vitro ADME; details: 1 and 10 μM
OCT1 [4] = biological target: T4, OCT1 (Homo sapiens, UniProt O15245); assay: Transporter inhibition, HEK293 cells; format: in vitro ADME
T4 construct: expressed in transfected cells; host or cells: HEK293
T4 sequence (O15245 1-554): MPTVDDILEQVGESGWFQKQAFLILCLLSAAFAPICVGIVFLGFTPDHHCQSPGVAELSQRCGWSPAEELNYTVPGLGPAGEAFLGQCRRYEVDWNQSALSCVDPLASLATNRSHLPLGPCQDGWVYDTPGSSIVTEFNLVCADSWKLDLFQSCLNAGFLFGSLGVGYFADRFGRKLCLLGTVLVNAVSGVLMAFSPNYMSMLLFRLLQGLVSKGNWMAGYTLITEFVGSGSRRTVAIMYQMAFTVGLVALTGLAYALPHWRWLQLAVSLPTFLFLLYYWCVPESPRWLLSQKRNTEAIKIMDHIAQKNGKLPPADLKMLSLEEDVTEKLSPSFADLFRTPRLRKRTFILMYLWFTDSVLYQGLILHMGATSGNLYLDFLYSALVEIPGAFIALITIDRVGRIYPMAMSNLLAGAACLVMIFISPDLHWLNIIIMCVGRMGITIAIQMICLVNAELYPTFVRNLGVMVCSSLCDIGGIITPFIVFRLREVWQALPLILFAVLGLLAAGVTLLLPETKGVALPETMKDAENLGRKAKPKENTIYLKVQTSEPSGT

OCT1 [5] = biological target: T4, OCT1; assay: Transporter substrate evaluation, HEK293 cells; format: in vitro ADME; details: 1 and 10 μM

## O=C(O)C[C@H]1CCc2c1[nH]c1ccc(OCc3ccc(C4CCCC4)c(C(F)(F)F)c3)cc21 [Compound 1, (R)-2-(7-(4-cyclopentyl-3-(trifluoromethyl)benzyloxy)-1,2,3,4-tetrahydrocyclopenta[b]indol-3-yl)acetic acid]
OCT2; HEK293 cells
  Potential substrate of OCT2: not a substrate of OCT2 and not a substrate and No
OCT2; absence and presence of quinidine (300 μM)
  Uptake ratio into OCT2-expressing cells: below two
OATP1B3 [1]; 1 and 10 μM
  Reduction of uptake rate of estradiol-17β-glucuronide into OATP1B3-expressing cells (inhibition): less than 50%
OATP1B3 [1]; HEK293 cells, [3H]-estradiol-17β-glucuronide (50 nM), 1 and 10 μM tested
  IC50: > 10 µM
[2]; 3 mg single dose
  Reduction of PBL counts: ~40%
[2]; 5 mg single dose
  Reduction of PBL counts: ~55%
[2]; 3 and 5 mg
  Time after dosing by which total PBL counts were reduced: 2 to 4 h
[2]; 3 and 5 mg, persisted for 24 hours
  Time of PBL nadir: ≤ 8 h
[2]; after nadir
  Recovery of PBL counts to baseline: 4 days
BSEP; 1 and 10 μM
  Reduction of ATP-dependent uptake of [3H]-taurocholic acid in BSEP-expressing vesicles (inhibition): less than 50%
BSEP; vesicles, [3H]-taurocholic acid (0.4 μM), 1 and 10 μM tested
  IC50: > 10 µM
CYP enzymes
  Metabolism-dependent inhibition of CYPs: little or no evidence of metabolism-dependent inhibition
OATP1B3 [3]; HEK293 cells
  Potential substrate of OATP1B3: not a substrate of OATP1B3 and not a substrate and No
OATP1B3 [3]; absence and presence of rifampin
  Uptake ratio into OATP1B3-expressing cells: less than two
OCT1 [4]; 1 and 10 μM
  Reduction of uptake rate of tetraethylammonium bromide into OCT1-expressing cells (inhibition): less than 50%
OCT1 [4]; HEK293 cells, [14C]-tetraethylammonium bromide (5 μM), 1 and 10 μM tested
  IC50: > 10 µM
OCT1 [5]; HEK293 cells
  Potential substrate of OCT1: not a substrate of OCT1 and not a substrate and No
OCT1 [5]; absence and presence of quinidine (100 μM)
  Uptake ratio into OCT1-expressing cells: below two

From US20210228545A1, “METHODS OF TREATING CONDITIONS RELATED TO THE S1P1 RECEPTOR” (Arena Pharmaceuticals, Inc., priority 2018, published 2021)
